Ten compounds from ChEMBL document CHEMBL1201862, “PubChem BioAssay data set” (2004) can be followed below.

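Five compound concentrations were applied to cells in 96-well plates for 48 hours; endpoints were derived by simple linear interpolation of the resulting dose-response curve. Here, GI50 denotes the concentration required for 50% inhibition of growth.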 Calls of active or inactive are those of the source. No stated cut-off is given here; in the data, active = GI50 up to about 1.1 µM and inactive = higher.

Test systems include OVCAR-5; MDA-MB-231; MOLT-4; UO-31; NCI/ADR-RES; RXF 393; SK-OV-3; K562; SR; CCRF-CEM; TK-10; COLO 205; KM12; HOP-62; SW-620; HCC 2998; LOX IMVI; SN12C; HL-60; SF-268.
Common to all, as to assay: NCI anticancer screen, dose series, 48 h

As to `O=C1C(Cl)=C(Nc2ccc(S(=O)(=O)Nc3ccccn3)cc2)C(=O)c2ccccc21`, the GI50 in the experiment with OVCAR-5 is 17.9 µM (inactive); in the experiment with MDA-MB-231, 6.89 µM (inactive); in the experiment on MOLT-4 it was 3.61 µM (inactive); in the experiment on UO-31, 9.84 µM (inactive); in the experiment with NCI/ADR-RES it was 9.93 µM (inactive); with RXF 393 it was 7.35 µM (inactive). Also, the GI50 in the experiment on SK-OV-3 was 17 µM (inactive); with K562, 2.23 µM (inactive); in the experiment on SR, 3.03 µM (inactive); with CCRF-CEM it was 3.68 µM (inactive); in the experiment on TK-10, 7.98 µM (inactive); with COLO 205, 13.9 µM (inactive). Also, the GI50 was 13.1 µM (inactive) in the experiment with KM12; 13 µM (inactive) with HOP-62; 5.78 µM (inactive) in the experiment on SW-620; 12.2 µM (inactive) in the experiment on HCC 2998; 1.78 µM (inactive) in the experiment on LOX IMVI; 11.3 µM (inactive) in the experiment with SN12C. For the same compound, the GI50 in the experiment with HL-60 is 3.3 µM (inactive); in the experiment with SF-268, 8.2 µM (inactive).

On to `NC(=O)c1cnc2sc3ccccc3n2c1=O`, for which the GI50 in the experiment on OVCAR-5 was > 100 µM (inactive); with MDA-MB-231 it was > 100 µM (inactive); in the experiment on MOLT-4 it was > 100 µM (inactive); with UO-31 it was 77.1 µM (inactive); with NCI/ADR-RES, > 100 µM (inactive); in the experiment with RXF 393 it was > 100 µM (inactive). Further, the GI50 in the experiment with SK-OV-3, with K562, with SR, with CCRF-CEM, with TK-10 and with COLO 205 was > 100 µM (inactive) in each case. The GI50 with KM12, in the experiment on HOP-62, in the experiment on SW-620, in the experiment with HCC 2998, with LOX IMVI and with SN12C was > 100 µM (inactive) each time. Moreover, the GI50 with HL-60 and in the experiment on SF-268 was > 100 µM (inactive) in each case.

`NC1C/C(=N\O)c2c(I)sc(I)c21` (stereo not given): the GI50 with OVCAR-5 is 15.7 µM (inactive); in the experiment with MDA-MB-231, 21.3 µM (inactive); with MOLT-4, 3.05 µM (inactive); in the experiment on UO-31 it was 13 µM (inactive); in the experiment on NCI/ADR-RES, 18.4 µM (inactive); in the experiment on RXF 393 it was 21.3 µM (inactive). Moreover, the GI50 was 16.4 µM (inactive) in the experiment on SK-OV-3; 8.04 µM (inactive) in the experiment with K562; 4.8 µM (inactive) with SR; 2.44 µM (inactive) in the experiment on CCRF-CEM; 16.9 µM (inactive) with TK-10; 19.6 µM (inactive) with COLO 205. Also, the GI50 in the experiment on KM12 was 13.1 µM (inactive); with HOP-62, 18.2 µM (inactive); in the experiment on SW-620, 9.82 µM (inactive); in the experiment on HCC 2998, 20.1 µM (inactive); in the experiment with LOX IMVI, 1.77 µM (inactive); with SN12C, 20.7 µM (inactive). Besides, the GI50 was 4.23 µM (inactive) in the experiment on HL-60 and 17.7 µM (inactive) in the experiment on SF-268.

`C=C(C(=O)OC)N1C(=O)CC(C)C1=O` (stereo not given): the GI50 with OVCAR-5 is 15.1 µM (inactive); in the experiment with MDA-MB-231, 17.6 µM (inactive); in the experiment on MOLT-4, 3.33 µM (inactive); with UO-31 it was 13.1 µM (inactive); with NCI/ADR-RES, 15.6 µM (inactive); in the experiment on RXF 393, 9.71 µM (inactive). Further, the GI50 is 35.7 µM (inactive) with SK-OV-3; 2.87 µM (inactive) in the experiment with K562; 2.59 µM (inactive) with SR; 1.7 µM (inactive) with CCRF-CEM; 6.79 µM (inactive) in the experiment with TK-10; 4.2 µM (inactive) in the experiment on COLO 205. The GI50 with KM12 was 20.3 µM (inactive); in the experiment with HOP-62, 17.5 µM (inactive); with SW-620, 9.35 µM (inactive); with HCC 2998, 16.1 µM (inactive); in the experiment with LOX IMVI, 7.14 µM (inactive); in the experiment on SN12C it was 16.1 µM (inactive). The GI50 is 1.37 µM (inactive) with HL-60 and 16.7 µM (inactive) in the experiment on SF-268.

In the case of `CCOC(=O)/C(=N\OC)C(O)C(F)(F)F` (stereo not given), the GI50 in the experiment with OVCAR-5, in the experiment on MDA-MB-231, with MOLT-4, in the experiment on UO-31, in the experiment with NCI/ADR-RES and in the experiment with RXF 393 was > 100 µM (inactive) in each case. The GI50 with SK-OV-3, in the experiment on K562, in the experiment on SR, in the experiment on CCRF-CEM, in the experiment on TK-10 and in the experiment with COLO 205 was > 100 µM (inactive) in each case. Also, the GI50 in the experiment with KM12, with HOP-62, with SW-620, with HCC 2998, in the experiment on LOX IMVI and with SN12C was > 100 µM (inactive) in each case. The GI50 in the experiment with HL-60 and with SF-268 was > 100 µM (inactive) throughout.

For `O=S(=O)(CC#CCS(=O)(=O)c1ccccc1)c1ccccc1`, the GI50 with OVCAR-5 is 4.63 µM (inactive); in the experiment on MDA-MB-231 it was 11.6 µM (inactive); with MOLT-4, 0.959 µM (active); with UO-31, 1.42 µM (inactive); in the experiment with NCI/ADR-RES it was 3.72 µM (inactive); in the experiment on RXF 393 it was 1.67 µM (inactive). In addition, the GI50 is 13.4 µM (inactive) in the experiment with SK-OV-3; 1.58 µM (inactive) with K562; 2.66 µM (inactive) in the experiment with SR; 0.0982 µM (active) with CCRF-CEM; 2.72 µM (inactive) in the experiment on TK-10; 1.95 µM (inactive) with COLO 205. Moreover, the GI50 with KM12 is 12.4 µM (inactive); in the experiment with HOP-62, 5.71 µM (inactive); in the experiment with SW-620, 0.891 µM (active); in the experiment on HCC 2998 it was 18.7 µM (inactive); in the experiment with LOX IMVI it was 1.51 µM (inactive); in the experiment on SN12C it was 4.28 µM (inactive). Besides, the GI50 in the experiment with HL-60 is 3.1 µM (inactive); in the experiment with SF-268, 4.35 µM (inactive).

Take `OCCNc1nc2c(N3CCCC3)nc(N3CCNCC3)nc2nc1NCc1ccccc1`: the GI50 with OVCAR-5 is 12.1 µM (inactive); in the experiment on MDA-MB-231 it was 15.7 µM (inactive); in the experiment with MOLT-4, 16 µM (inactive); in the experiment with UO-31, 15.3 µM (inactive); with NCI/ADR-RES, 38.5 µM (inactive); in the experiment with RXF 393, 11.3 µM (inactive). Moreover, the GI50 was 16.8 µM (inactive) with SK-OV-3; 14 µM (inactive) with K562; 13.3 µM (inactive) in the experiment with SR; 10.8 µM (inactive) in the experiment on CCRF-CEM; 15 µM (inactive) in the experiment with TK-10; 11.7 µM (inactive) with COLO 205. Moreover, the GI50 with KM12 was 11.9 µM (inactive); with HOP-62, 2.63 µM (inactive); in the experiment with SW-620, 19.1 µM (inactive); in the experiment on HCC 2998, 15.2 µM (inactive); in the experiment on LOX IMVI, 14.7 µM (inactive); in the experiment with SN12C it was 16.7 µM (inactive). For the same compound, the GI50 is 15.5 µM (inactive) with HL-60 and 16.9 µM (inactive) in the experiment on SF-268.

Regarding `CC(=O)Nc1ccc2c3c(cc(O)c2c1)N(C(=O)CCCC(=O)N1CC(CCl)c2c1cc(O)c1cc(NC(C)=O)ccc21)CC3CCl` (stereo not given), the GI50 is 0.0198 µM (active) in the experiment on OVCAR-5; < 0.01 µM (active) in the experiment on MDA-MB-231; < 0.01 µM (active) in the experiment on MOLT-4; < 0.0166 µM (active) in the experiment with UO-31; 0.0828 µM (active) in the experiment on NCI/ADR-RES; < 0.01 µM (active) with RXF 393. For the same compound, the GI50 is < 0.011 µM (active) in the experiment with SK-OV-3; < 0.01 µM (active) in the experiment with K562; < 0.01 µM (active) with SR; < 0.01 µM (active) with CCRF-CEM; 0.022 µM (active) with TK-10; 0.0154 µM (active) in the experiment with COLO 205. The GI50 is 0.0132 µM (active) in the experiment with KM12; < 0.01 µM (active) with HOP-62; 0.0392 µM (active) in the experiment on SW-620; 0.0122 µM (active) with HCC 2998; < 0.01 µM (active) with LOX IMVI; < 0.01 µM (active) in the experiment with SN12C. In addition, the GI50 in the experiment with HL-60 and in the experiment on SF-268 was < 0.01 µM (active) in each case.

On to `CCC/C(Cl)=N\OC(=O)Nc1ccc(F)cc1`, for which the GI50 in the experiment on OVCAR-5 is 18.7 µM (inactive); in the experiment with MDA-MB-231, 17.9 µM (inactive); with MOLT-4 it was 2.47 µM (inactive); in the experiment with UO-31 it was 17.7 µM (inactive); with NCI/ADR-RES it was 21.1 µM (inactive); in the experiment on RXF 393 it was 18.4 µM (inactive). Besides, the GI50 in the experiment on SK-OV-3 was > 45.1 µM (inactive); in the experiment on K562, 1.89 µM (inactive); with SR it was 2.18 µM (inactive); with CCRF-CEM it was 1.63 µM (inactive); in the experiment with TK-10 it was 15.7 µM (inactive); with COLO 205, 3.16 µM (inactive). The GI50 with KM12 was 20.6 µM (inactive); with HOP-62 it was 19.2 µM (inactive); in the experiment on SW-620, 7 µM (inactive); with HCC 2998, 17.6 µM (inactive); in the experiment on LOX IMVI it was 4.15 µM (inactive); with SN12C, 16.7 µM (inactive). The GI50 was 1.87 µM (inactive) in the experiment with HL-60 and 26.1 µM (inactive) in the experiment on SF-268.

With `C(=C\c1ccccc1)/COc1ccccc1C(N1CCOCC1)n1nc2ccccc2n1` (stereo not given), the GI50 in the experiment on OVCAR-5 is 14.1 µM (inactive); in the experiment on MDA-MB-231, 4.73 µM (inactive); in the experiment with MOLT-4, 2.3 µM (inactive); in the experiment with UO-31 it was 9.86 µM (inactive); with NCI/ADR-RES, 3.69 µM (inactive); with RXF 393, 3.94 µM (inactive). Also, the GI50 is 32.4 µM (inactive) with SK-OV-3; 1.19 µM (inactive) with K562; 1.07 µM (active) with SR; 1.88 µM (inactive) with CCRF-CEM; 6.98 µM (inactive) in the experiment on TK-10; 19.9 µM (inactive) with COLO 205. Besides, the GI50 in the experiment on KM12 is 5.26 µM (inactive); with HOP-62, 4.71 µM (inactive); in the experiment on SW-620, 4.28 µM (inactive); in the experiment with HCC 2998, 17.5 µM (inactive); in the experiment on LOX IMVI it was 2.9 µM (inactive); in the experiment with SN12C, 5.6 µM (inactive). Moreover, the GI50 with HL-60 was 0.352 µM (active); in the experiment on SF-268, 5.71 µM (inactive).
